Measured values: ChEMBL document CHEMBL4680212, “Discovery of T-1101 tosylate as a first-in-class clinical candidate for Hec1/Nek2 inhibition in cancer therapy” (Eur J Med Chem, 2020)
Values belong to the molecule of their own block, whether it stands above or below them.

Tests used:
[1] = AUC in CD-1 mouse at 10 mg/kg, po administered as single dose via gavage by LC-MS/MS analysis; format: ADME, organism-based; set-up: dose 10 mg/kg; details: in vivo
[2] = Oral bioavailability in CD-1 mouse at 10 mg/kg administered as single dose via gavage by LC-MS/MS analysis; format: ADME, organism-based; details: in vivo
MDA-MB-231 [3] = test: Antiproliferative activity against human MDA-MB-231 cells measured after 96 hrs by CellTiter 96 Aqueous One Solution Reagent based assay; format: functional, cell-based; details: MDA-MB-231, 96 h
MDA-MB-468 = test: Antiproliferative activity against human MDA-MB-468 cells measured after 96 hrs by CellTiter 96 Aqueous One Solution Reagent based assay; format: functional, cell-based; details: MDA-MB-468, 96 h
K562 [4] = test: Antiproliferative activity against human K562 cells measured after 96 hrs by CellTiter 96 Aqueous One Solution Reagent based assay; format: functional, cell-based; details: K562, 96 h
HeLa = test: Antiproliferative activity against human HeLa cells measured after 96 hrs by CellTiter 96 Aqueous One Solution Reagent based assay; format: functional, cell-based
MDA-MB-231 [5] = test: Antitumor activity against human MDA-MB-231 cells xenografted in SCID mouse assessed as tumor growth at 150 mg/kg, po administered twice daily for 28 days measured post last dose relative to control; format: functional; details: time 28 day
K562 [6] = test: Antiproliferative activity against human K562 cells measured after 96 hrs by MTT assay; format: functional, cell-based; details: K562, 96 h

AUC [1]: 50.9 µM·h
bioavailability [2]: 84%
SMILES: COCCOc1cnc(Sc2cc(C)c(-c3csc(NC(=O)c4ccncc4)n3)c(C)c2)cn1.Cl

IC50 (MDA-MB-231 [3]): 94.5 nM
IC50 (MDA-MB-468): 53.9 nM
IC50 (K562 [4]): 59.2 nM
IC50 (HeLa): 32.8 nM
AUC [1]: 13.9 µM·h
SMILES: Cc1cc(Sc2cnc(OCCN(C)C)cn2)cc(C)c1-c1csc(NC(=O)c2ccncc2)n1

SMILES: COc1ccc(Oc2cc(C)c(-c3csc(NC(=O)c4ccncc4)n3)c(C)c2)cc1
T/C (MDA-MB-231 [5]): 50%

IC50 (K562 [6]): 790 nM
SMILES: Cc1cc(C)c(-c2csc(NC(=O)/C=C/c3ccc(C(C)(C)C)cc3)n2)c(C)c1
